Common to all, as to assay: relative viability (nuclei count vs DMSO), 5 days (fraction); higher = more cells survive
Compound in assay [1]: O=C(O)C(Cc1ccccc1[N+](=O)[O-])=NNc1nc(-c2ccc(Cl)c(Cl)c2)cs1 (mixture of isomers) [4EGI-1] + C[C@@H](Oc1cc(-c2cnn(C3CCNCC3)c2)cnc1N)c1c(Cl)ccc(F)c1Cl [Crizotinib] (partner 1 µM)
In short, it runs like this: (§1)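 Nuclei were stained with Hoechst during a one-step fixation (final 0.05% Triton X-100, 1% formaldehyde, 1 ug/ml Hoechst) carried out 5 days after dosing, then counted on 4× images. The cells, lung cancer lines in 1536-well plates, had been dosed by pin tool the day after seeding with one drug alone or a fixed anchor-drug dose plus five library-drug doses (not always all listed) in √10 steps. Relative viability is the nuclei count in treated wells divided by that in vehicle wells, and each value is the median of duplicate plates.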

Compound in assay [2]: CN1CCN(CC1)C2=CC(=C(C=C2)NC3=NC=C4C(=N3)N(C5=CC=CC=C5C(=O)N4C)C)OC [XMD8-85] + Cc1nc(Nc2ncc(C(=O)Nc3c(C)cccc3Cl)s2)cc(N2CCN(CCO)CC2)n1 [Dasatinib] (partner 0.075 µM)
In short, it runs like this: as §1

Compound in assay [3]: CN1CCN(CC1)C2=CC(=C(C=C2)NC3=NC=C4C(=N3)N(C5=CC=CC=C5C(=O)N4C)C)OC [XMD8-85] + CC(=O)c1c(C)c2cnc(Nc3ccc(N4CCNCC4)cn3)nc2n(C2CCCC2)c1=O [Palbociclib] (partner 0.5 µM)
In short, it runs like this:
as §1

Compound in assay [4]: CN1CCN(CC1)C2=CC(=C(C=C2)NC3=NC=C4C(=N3)N(C5=CC=CC=C5C(=O)N4C)C)OC [XMD8-85]
In outline: (§2)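 After an overnight hold at 37 °C, lung cancer cell lines in 1536-well plates were pinned with five library-drug doses (not always all listed), each √10 from the next, on vehicle-anchored plates. The cells stayed 5 days without fresh medium, then a one-step fix, permeabilisation and Hoechst stain preceded 4× imaging and MetaXpress nuclear counts. A plate passed only with control CV under 25% and at least one doubling. Viability is the median, over plates, of treated-well nuclei relative to vehicle-well nuclei.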

Compound in assay [5]: O=C(O)C(Cc1ccccc1[N+](=O)[O-])=NNc1nc(-c2ccc(Cl)c(Cl)c2)cs1 (mixture of isomers) [4EGI-1]
In outline: as §2

NCI-H1792: the relative viability is 0.963 in assay [1] (first compound 0.5 µM); 0.772 in assay [1] (first compound 1.581 µM); 0.963 in assay [1] (first compound 5 µM); 0.842 in assay [1] (first compound 15.81 µM); 0.823 in assay [1] (first compound 50 µM); 0.749 in assay [2] (first compound 0.253 µM). The relative viability in assay [2] (first compound 2.53 µM) is 1.15; in assay [2] (first compound 8 µM), 0.85; in assay [3] (first compound 0.253 µM) it was 0.642; in assay [3] (first compound 2.53 µM) it was 0.835; in assay [3] (first compound 8 µM), 0.551; in assay [4] (0.253 µM), 0.904. For the same cell line, the relative viability in assay [4] (2.53 µM) was determined as 1.14; in assay [4] (8 µM) it was 0.704; in assay [5] (0.5 µM), 0.99; in assay [5] (1.581 µM), 1.1; in assay [5] (5 µM) it was 0.941; in assay [5] (15.81 µM), 0.903. The relative viability in assay [5] (50 µM) was found to be 0.608.

Source of the values: the supplement of paper PMC10307832.
